Data from US12503454B2, “LPA receptor antagonists and uses thereof” (Gilead Sciences, Inc., priority 2021, dated 2025).

Target: human LPAR1 (Homo sapiens, UniProt Q92633)
Assay: LPAR1 intracellular calcium mobilization assay (antagonist mode, FLIPR)
Type: cell-based
Details: CHO-K1 EDG2 cells expressing human LPAR1; test compound 0.5 nM to 10 μM pre-incubated 60 minutes at 37° C., then LPA 18:2 at EC80 concentration (100 nM)
Description: In vitro LPAR1 activity was measured in an intracellular calcium mobilization assay. CHO-K1 EDG2 cells (DiscoverX cat #93-0644C2) expressing human LPAR1 (NM_001401.3) were seeded in a total volume of 25 μL of Dulbecco's Modification of Eagle's Medium (DMEM) with 10% Fetal Bovine Serum, 1× PenStrepGlutamine, 300 μg/ml Hygromycin, and 800 μg/ml G418 into 384-well tissue culture plate (Grenier #781091) at 15,000 cells/well and incubated at 37° C. overnight. Prior to testing, 25 μL Calcium Loading Dye Component A (FLIPR Calcium 6 Assay Kit Molecular Device # R8190) and 2.5 mM Probenecid (Invitrogen # P36400, prepared fresh) in Hank's Balanced Salt Solution (Corning #21-023-CV), 20 mM HEPES (Corning #25-060-CI), 0.1% Bovine Serum Albumin (Sigma-Aldrich # A7906-500G) was add to the cells for 60 minutes at 37° C.
Agonist dose curves of LPA 18:2 (Avanti Polar Lipids cat #857138, 0.5 nM to 10 μM) were recorded to determine the LPA 18:2 EC80 for subsequent antagonist assays. For agonist dose curves, cells were removed from the incubator 2 hours after dye loading and transferred to the FLIPR Tetra instrument (Molecular Devices, San Jose, CA). Calcium mobilization was monitored for 5 min and 10 μL 6×LPA in HBSS/20 mM Hepes/0.1% bovine serum albumin (BSA) was added to the cells 5 seconds into the assay.
To determine the LPAR1 antagonist activity of test compounds, cells were pre-incubated with test compound at a dose range of 0.5 nM to 10 μM, followed by LPA at EC80 concentration (100 nM). After dye loading, cells were removed from the incubator and 0.3 μL of 200× antagonist was added. Cells were incubated for 60 minutes at 37° C. Antagonist activity was measured on a FLIPR Tetra. Calcium mobilization was monitored for 3.5 minutes and 10 μL 6×EC80 LPA in HBSS, 20 mM HEPES, and 0.1% BSA was added to the cells 5 seconds into the assay. Signal amplitude (Maximum minus minimum) values were plotted against log10 of antagonist concentration using Dose Response Tool (Gilead Sciences Inc.) to determine […].
To assess the antagonistic potential of exemplified compounds […] were determined for Compounds 1 to 66 in the LPAR1 calcium mobilization assay. The compound numbers correspond to the compound numbers in Examples 1 to 18. N/A=not available.

human LPAR1, sequence (Q92633 whole entry): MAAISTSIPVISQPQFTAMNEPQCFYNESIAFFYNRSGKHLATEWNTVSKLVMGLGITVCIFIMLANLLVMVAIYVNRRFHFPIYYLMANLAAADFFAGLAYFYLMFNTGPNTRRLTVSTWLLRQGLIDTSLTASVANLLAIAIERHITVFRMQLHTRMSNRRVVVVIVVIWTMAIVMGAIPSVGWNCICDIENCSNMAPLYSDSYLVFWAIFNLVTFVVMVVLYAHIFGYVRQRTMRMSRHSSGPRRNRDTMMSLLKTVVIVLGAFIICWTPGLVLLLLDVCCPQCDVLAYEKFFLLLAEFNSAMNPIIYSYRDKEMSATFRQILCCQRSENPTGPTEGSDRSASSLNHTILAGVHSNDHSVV

Structure (SMILES) | EC50 [nM]
C[C@@H](OC(=O)Nc1c(-c2ccc(C(=O)NC34CC(C(F)(F)F)(C3)C4)cn2)nnn1C)c1cccnc1Cl [Compound 15, (R)-1-(2-chloro-pyridin-3-yl)ethyl (1-methyl-4-(5-((3-(trifluoro-methyl)bicyclo-[1.1.1]pentan-1-yl)carbamoyl)-pyridin-2-yl)-1H-1,2,3-triazol-5-yl)carbamate] | 26.2
C[C@@H](OC(=O)Nc1c(-c2ccc(C(=O)NC34CC(C(F)F)(C3)C4)cn2)nnn1C)c1cccnc1Cl [Compound 6] | 56.1
COC12CC(NC(=O)c3ccc(-c4nnn(C)c4NC(=O)O[C@H](C)c4cccnc4Cl)nc3)(C1)C2 [Compound 11, (R)-1-(2-chloro-pyridin-3-yl)-ethyl (4-(5-((3-methoxybicyclo-[1.1.1]pentan-1-yl)carbamoyl)-pyridin-2-yl)-1-methyl-1H-1,2,3-triazol-5-yl)carbamate] | 62.7
C[C@@H](OC(=O)Nc1c(-c2ccc(C(=O)NC34CC(C(F)(F)F)(C3)C4)cn2)nnn1C)c1cc(F)cnc1F [Compound 22, (R)-1-(2,5-difluoro-pyridin-3-yl)ethyl (1-methyl-4-(5-((3-(trifluorometh-yl)bicyclo[1.1.1]-pentan-1-yl)carbam-oyl)pyridin-2-yl)-1H-1,2,3-triazol-5-yl)carbamate] | 84.8
C[C@@H](OC(=O)Nc1c(-c2ccc(C(=O)NC34CC(C#N)(C3)C4)cn2)nnn1C)c1cc(F)cnc1F [Compound 18, (R)-1-(2,5-difluoropyridin-3-yl)ethyl (4-(5-((3-cyanobicyclo[1.1.1]pentan-1-yl)carbamoyl)pyridin-2-yl)-1-methyl-1H-1,2,3-triazol-5-yl)carbamate] | 91.2
C[C@@H](OC(=O)Nc1c(-c2ccc(C(=O)Nc3ccc(F)nc3)cn2)nnn1C)c1cccnc1Cl [Compound 9, (R)-1-(2-chloro-pyridin-3-yl)-ethyl (4-(5-((6-fluoropyridin-3-yl)carbam-oyl)pyridin-2-yl)-1-methyl-1H-1,2,3-triazol-5-yl)carbamate] | 325
C[C@@H](OC(=O)Nc1c(-c2ccc(C(=O)Nc3ccnc(C(F)(F)F)c3)cn2)nnn1C)c1cc(F)cnc1F [Compound 19, (R)-1-(2,5-difluoropyridin-3-yl)ethyl (1-methyl-4-(5-((2-(trifluoromethyl)pyridin-4-yl)carbamoyl)pyridin-2-yl)-1H-1,2,3-triazol-5-yl)carbamate] | 16.6
COC(=O)C12CC(NC(=O)c3ccc(-c4nnn(C)c4NC(=O)O[C@H](C)c4cccnc4Cl)nc3)(C1)C2 [Compound 12, (R)-methyl 3-(6-(5-(((1-(2-chloro-pyridin-3-yl)-ethoxy)carbon-yl)amino)-1-methyl-1H-1,2,3-triazol-4-yl)nicotinamido)-bicyclo[1.1.1]-pentane-1-carbox-ylate] | 26.5
C[C@@H](OC(=O)Nc1c(-c2ccc(C(=O)Nc3ccncc3)cn2)nnn1C)c1cccnc1Cl [Compound 1, (R)-1-(2-chloropyridin-3-yl)ethyl (1-methyl-4-(5-(pyridin-4-ylcarbamoyl)pyridin-2-yl)-1H-1,2,3-triazol-5-yl)carbamate] | 75.8

Next, values leading:

EC50 [nM] | Structure (SMILES)
10.1 | C[C@@H](OC(=O)Nc1c(-c2ccc(C(=O)Nc3cnc(C(F)(F)F)s3)cn2)nnn1C)c1cc(F)cnc1F [Compound 42, (R)-1-(2,5-difluoro-pyridin-3-yl)ethyl (1-methyl-4-(5-((2-(trifluoromethyl)-thiazol-5-yl)-carbamoyl)pyridin-2-yl)-1H-1,2,3-triazol-5-yl)-carbamate]
222 | C[C@@H](OC(=O)Nc1c(-c2ccc(C(=O)Nc3cnc(C(F)(F)F)nc3)cn2)nnn1C)c1cc(F)cnc1F [Compound 24, (R)-1-(2,5-difluoro-pyridin-3-yl)ethyl (1-methyl-4-(5-((2-(trifluorometh-yl)pyrimidin-5-yl)-carbamoyl)pyridin-2-yl)-1H-1,2,3-triazol-5-yl)-carbamate]
9 | C[C@@H](OC(=O)Nc1c(-c2ccc(C(=O)Nc3cc(Cl)nc(C(F)(F)F)c3)cn2)nnn1C)c1cc(F)cnc1F [Compound 43, (R)-1-(2,5-difluoro-pyridin-3-yl)ethyl (4-(5-((2-chloro-6-(trifluoromethyl)-pyridin-4-yl)-carbamoyl)pyridin-2-yl)-1-methyl-1H-1,2,3-triazol-5-yl)-carbamate]
139 | C[C@@H](OC(=O)Nc1c(-c2ccc(C(=O)NC34CC(C(F)(F)F)(C3)C4)cn2)nnn1C)c1cccnc1F [Compound 56, (R)-1-(2-fluoropyridin-3-yl)ethyl (1-methyl-4-(5-((3-(trifluoro-methyl)bicyclo[1.1.1]-pentan-1-yl)carbamoyl)-pyridin-2-yl)-1H-1,2,3-triazol-5-yl)carbamate]
47.5 | C[C@@H](OC(=O)Nc1c(-c2ccc(C(=O)Nc3ccc(C#N)c(C(F)(F)F)c3)cn2)nnn1C)c1cc(F)cnc1F [Compound 34, (R)-1-(2,5-difluoro-pyridin-3-yl)ethyl (4-(5-((4-cyano-3-(trifluoromethyl)-phenyl)carbamoyl)-pyridin-2-yl)-1-methyl-1H-1,2,3-triazol-5-yl)-carbamate]
210 | C[C@@H](OC(=O)Nc1c(-c2ccc(C(=O)NC34CC(F)(C3)C4)c(C(F)(F)F)n2)nnn1C)c1cccnc1Cl [Compound 66, (R)-1-(2-chloropyridin-3-yl)ethyl (4-(5-((3-fluorobicyclo[1.1.1]pentan-1-yl)carbamoyl)-6-(trifluoromethyl)pyridin-2-yl)-1-methyl-1H-1,2,3-triazol-5-yl)carbamate]
61 | C[C@@H](OC(=O)Nc1c(-c2ccc(C(=O)Nc3ccc(-c4ccncc4)cc3)cn2)nnn1C)c1cc(F)cnc1F [Compound 41, (R)-1-(2,5-difluoro-pyridin-3-yl)ethyl (1-methyl-4-(5-((4-(pyridin-4-yl)phenyl)carbam-oyl)pyridin-2-yl)-1H-1,2,3-triazol-5-yl)carbamate]
24.4 | C[C@@H](OC(=O)Nc1c(-c2ccc(C(=O)Nc3cnnc(Cl)c3)cn2)nnn1C)c1cc(F)cnc1F [Compound 38, (R)-1-(2,5-difluoro-pyridin-3-yl)ethyl (4-(5-((6-chloro-pyridazin-4-yl)-carbamoyl)pyridin-2-yl)-1-methyl-1H-1,2,3-triazol-5-yl)-carbamate]
7.6 | C[C@@H](OC(=O)Nc1c(-c2ccc(C(=O)Nc3ccc(-c4cccnc4)cc3)cn2)nnn1C)c1cc(F)cnc1F [Compound 40, (R)-1-(2,5-difluoro-pyridin-3-yl)ethyl (1-methyl-4-(5-((4-(pyridin-3-yl)phenyl)carbam-oyl)pyridin-2-yl)-1H-1,2,3-triazol-5-yl)carbamate]
427 | C[C@@H](OC(=O)Nc1c(-c2ccc(C(=O)Nc3ccc(C4CC4)nc3)cn2)nnn1C)c1cc(F)cnc1F [Compound 28, (R)-1-(2,5-difluoro-pyridin-3-yl)ethyl (4-(5-((6-cyclo-propylpyridin-3-yl)carbamoyl)-pyridin-2-yl)-1-methyl-1H-1,2,3-triazol-5-yl)-carbamate]
717 | C[C@@H](OC(=O)Nc1c(-c2ccc(C(=O)NC34CC(F)(C3)C4)cn2)nnn1C)c1cccnc1F [Compound 57, (R)-1-(2-fluoropyridin-3-ylethyl (4-(5-((3-fluorobicyclo[1.1.1]-pentan-1-yl)carbamoyl)-pyridin-2-yl)-1-methyl-1H-1,2,3-triazol-5-yl)-carbamate]
93.4 | C[C@@H](OC(=O)Nc1c(-c2ccc(C(=O)NC34CC(F)(C3)C4)c(Cl)n2)nnn1C)c1cccnc1Cl [Compound 60, (R)-1-(2-chloropyridin-3-yl)ethyl (4-(6-chloro-5-((3-fluorobicyclo[1.1.1]pentan-1-yl)carbamoyl)pyridin-2-yl)-1-methyl-1H-1,2,3-triazol-5-yl)carbamate]
< 4.6 | C[C@@H](OC(=O)Nc1c(-c2ccc(C(=O)Nc3cc(Cl)nc(Cl)c3)cn2)nnn1C)c1cc(F)cnc1Cl [Compound 51, (R)-1-(2-chloro-5-fluoropyridin-3-yl)ethyl (4-(5-((2,6-dichloro-pyridin-4-yl)-carbamoyl)pyridin-2-yl)-1-methyl-1H-1,2,3-triazol-5-yl)carbamate]
145 | C[C@@H](OC(=O)Nc1c(-c2ccc(C(=O)NC34CC(F)(C3)C4)c(F)n2)nnn1C)c1cccnc1Cl [Compound 63, (R)-1-(2-chloropyridin-3-yl)ethyl (4-(6-fluoro-5-((3-fluorobicyclo[1.1.1]pentan-1-yl)carbamoyl)pyridin-2-yl)-1-methyl-1H-1,2,3-triazol-5-yl)carbamate]
